Measurements from ChEMBL document CHEMBL6120946, “From Hit to Lead: Discovery of First-In-Class Furanone Glycoside D228 Derived from Chimonanthus salicifolius for the Treatment of Inflammatory Bowel Disease” (J Med Chem, 2024).
The source made the active and inactive calls. No cut-off for these calls is given here.

Columns and labels:
[1] = Toxicity in male C57BL/6 mouse assessed as effect on CREA level at 0.5 g/Kg administered daily and measured after 5 weeks; conditions: in vivo, 500 mg/kg, 840 h
[2] = Toxicity in male C57BL/6 mouse assessed as effect on GLU level at 0.5 g/Kg administered daily and measured after 5 weeks; conditions: in vivo, 500 mg/kg, 840 h
[3] = test system: Mus musculus; test: Antiinflammatory activity in DSS-induced male C57BL/6 mouse model of inflammatory bowel disease assessed as downregulation of TRAF6 expression at 50 to 100 microM/Kg by Western blot analysis; format: functional, organism-based; conditions: dose 50-100 µM/Kg
[4] = test system: Mus musculus; test: Antiinflammatory activity in DSS-induced male C57BL/6 mouse model of inflammatory bowel disease assessed as inhibition of MPO expression at 50 to 100 microM/Kg, po by immunohistochemical analysis; format: functional, organism-based; conditions: dose 50-100 µM/Kg
[5] = Selectivity ratio of CC50 for cytotoxicity against mouse Splenocyte to IC50 for immunosuppressive activity in mouse B-lymphocyte; format: toxicity; conditions: splenocytes (CC50) and B-lymphocytes (IC50)
[6] = test system: Mus musculus; test: Antiinflammatory activity in DSS-induced male C57BL/6 mouse model of inflammatory bowel disease assessed as decrease in p38 phosphorylation level at 50 to 100 microM/Kg by Western blot analysis; format: functional, organism-based; conditions: dose 50-100 µM/Kg
[7] = test system: Mus musculus; test: Antiinflammatory activity in DSS-induced male C57BL/6 mouse model of inflammatory bowel disease assessed as amelioration of structural loss of colon at 50 to 100 microM/Kg by H and E staining based analysis; format: functional, organism-based; conditions: dose 50-100 µM/Kg
[8] = Toxicity in female BALB/c mouse assessed as effect on CK level at 0.5 g/Kg administered daily and measured after 5 weeks; conditions: in vivo, 500 mg/kg, 840 h
[9] = test system: B-cell line; test: Immunosuppressive activity in mouse B-lymphocyte assessed as reduction in LPS-induced cell proliferation incubated for 48 hrs; format: functional, cell-based
[10] = test system: Mus musculus; test: Antiinflammatory activity in DSS-induced male C57BL/6 mouse model assessed as inhibition of IL-6 level in colon at 50 to 100 microM/Kg; format: functional, organism-based; conditions: dose 50-100 µM/Kg
[11] = Toxicity in female BALB/c mouse assessed as effect on Na inorganic salt index at 0.5 g/Kg administered daily and measured after 5 weeks; conditions: in vivo, 500 mg/kg, 840 h
[12] = Cytotoxicity against mouse Splenocyte by MTT assay; format: toxicity, cell-based; conditions: splenocytes
[13] = Toxicity in male C57BL/6 mouse assessed as effect on ALP level at 0.5 g/Kg administered daily and measured after 5 weeks; conditions: in vivo, 500 mg/kg, 840 h
[14] = Selectivity ratio of CC50 for cytotoxicity against mouse Splenocyte to IC50 for immunosuppressive activity in mouse T-lymphocyte; format: toxicity; conditions: splenocytes (CC50) and T-lymphocytes (IC50)
[15] = test system: Mus musculus; test: Antiinflammatory activity in DSS-induced male C57BL/6 mouse model assessed as inhibition of IL-22 level in colon at 50 to 100 microM/Kg; format: functional, organism-based; conditions: dose 50-100 µM/Kg
[16] = Toxicity in male C57BL/6 mouse assessed as effect on Cl inorganic salt index at 0.5 g/Kg administered daily and measured after 5 weeks; conditions: in vivo, 500 mg/kg, 840 h
[17] = test system: Mus musculus; test: Antiinflammatory activity in DSS-induced male C57BL/6 mouse model assessed as inhibition of IL-17A level in colon at 50 to 100 microM/Kg; format: functional, organism-based; conditions: dose 50-100 µM/Kg
[18] = test system: Mus musculus; test: Antiinflammatory activity in DSS-induced male C57BL/6 mouse model of inflammatory bowel disease assessed as amelioration of crypts disruption at 50 to 100 microM/Kg by H and E staining based analysis; format: functional, organism-based; conditions: dose 50-100 µM/Kg
[19] = Toxicity in female BALB/c mouse assessed as effect on CREA level at 0.5 g/Kg administered daily and measured after 5 weeks; conditions: in vivo, 500 mg/kg, 840 h
[20] = test system: Mus musculus; test: Antiinflammatory activity in DSS-induced male C57BL/6 mouse model of inflammatory bowel disease assessed as downregulation of MyD88 expression at 50 to 100 microM/Kg by Western blot analysis; format: functional, organism-based; conditions: dose 50-100 µM/Kg
[21] = test system: Mus musculus; test: Antiinflammatory activity in DSS-induced male C57BL/6 mouse model of inflammatory bowel disease assessed as amelioration of infiltration of inflammatory cells at 50 to 100 microM/Kg by H and E staining based analysis; format: functional, organism-based; conditions: dose 50-100 µM/Kg
[22] = Toxicity in female BALB/c mouse assessed as effect on ALP level at 0.5 g/Kg administered daily and measured after 5 weeks; conditions: in vivo, 500 mg/kg, 840 h
[23] = test system: Mus musculus; test: Antiinflammatory activity in DSS-induced male C57BL/6 mouse model of inflammatory bowel disease assessed as upregulation of ZO-1 expression in colon at 50 to 100 microM/Kg by immunohistochemical analysis; format: functional, organism-based; conditions: dose 50-100 µM/Kg
[24] = Toxicity in female BALB/c mouse assessed as effect on Cl inorganic salt index at 0.5 g/Kg administered daily and measured after 5 weeks; conditions: in vivo, 500 mg/kg, 840 h
[25] = Toxicity in female BALB/c mouse assessed as effect on GLU level at 0.5 g/Kg administered daily and measured after 5 weeks; conditions: in vivo, 500 mg/kg, 840 h
[26] = Toxicity in male C57BL/6 mouse assessed as effect on CK level at 0.5 g/Kg administered daily and measured after 5 weeks; conditions: in vivo, 500 mg/kg, 840 h
[27] = test system: Mus musculus; test: Antiinflammatory activity in DSS-induced male C57BL/6 mouse model assessed as increase in IL-10 level in colon at 50 to 100 microM/Kg; format: functional, organism-based; conditions: dose 50-100 µM/Kg
[28] = Toxicity in male C57BL/6 mouse assessed as effect on Na inorganic salt index at 0.5 g/Kg administered daily and measured after 5 weeks; conditions: in vivo, 500 mg/kg, 840 h
[29] = test system: Mus musculus; test: Antiinflammatory activity in DSS-induced male C57BL/6 mouse model assessed as effect on JNK phosphorylation level at 50 to 100 microM/Kg by Western blot analysis; format: functional, organism-based; conditions: dose 50-100 µM/Kg
[30] = test system: Mus musculus; test: Antiinflammatory activity in DSS-induced male C57BL/6 mouse model assessed as inhibition of TNF-alpha level in colon at 50 to 100 microM/Kg; format: functional, organism-based; conditions: dose 50-100 µM/Kg
[31] = Immunosuppressive activity in mouse T-lymphocyte assessed as reduction in concanavalin A-induced cell proliferation incubated for 48 hrs; format: functional, cell-based

With `CC(C)=C1OC(C)=C(O)C1=O` the Activity [1] was “Non-toxic”, the Activity [2] was “Non-toxic” and the Activity [3] was “Active”. For the same molecule, the Activity [4] was “Active”, the selectivity ratio [5] was 4.77 and the Activity [6] was “Active”. For the same molecule, the Activity [7] was “Active”, the Activity [8] was “Non-toxic” and the IC50 [9] was 23.1 µM. For the same molecule, the Activity [10] was “Active”, the Activity [11] was “Non-toxic” and the CC50 [12] was 110 µM. For the same molecule, the Activity [13] was “Non-toxic”, the selectivity ratio [14] was 1.82 and the Activity [15] was “Active”. The Activity [16] was “Non-toxic”, the Activity [17] was “Active” and the Activity [18] was “Active”. For the same molecule, the Activity [19] was “Non-toxic”, the Activity [20] was “Active” and the Activity [21] was “Active”. The Activity [22] was “Non-toxic”, the Activity [23] was “Active” and the Activity [24] was “Non-toxic”. The Activity [25] was “Non-toxic”, the Activity [26] was “Non-toxic” and the Activity [27] was “Active”. The Activity [28] was “Non-toxic”, the Activity [29] was “inactive” and the Activity [30] was “Active”. For the same molecule, the IC50 [31] was 62.1 µM.
